In patent US20100233256A1, “SYNERGISTIC COMBINATIONS FOR TREATING HYPERTENSION” (LYCORED LTD., priority 2007, published 2010):

System: adhesion of neutrophils to EA.hy 926 endothelial cell line
Test: Adhesion of neutrophils to TNFα-induced EA.hy 926 endothelial cells
Type: cell-based
Settings: for reduction of adhesion of neutrophils to cytokine-induced endothelial cell line: EAhy. 926; for inhibition of the adhesion: lower concentration, percent of the adhesion induced by TNFα
Description: The applicants of the present invention have shown that lycopene, lutein and 7% Lye-O-Mato® can improve endothelial function by reducing, to similar extent (60±15%), the adhesion of neutrophils to cytokine-induced endothelial cell line (EAhy. 926). […] Lycopene 610 and oleoresin were diluted by 1:12 fold and lutein by 1:8 fold which result in ˜0.2 μM lycopene 610, ˜0.125 μM oleoresin and ˜0.6 μM lutein. The adhesion of neutrophils to EA.hy 926 cells were measured after the endothelial cells were induced by TNFα which result in increase of 60±10% in the adhesion from their combination, was calculated as percent of the adhesion induced by TNFα

Structure (SMILES) | reduction of adhesion of neutrophils to cytokine-induced endothelial cell line (high concentration: lycopene 610 2-3 μM) [%] | inhibition of the adhesion (~0.2 μM lycopene 610, FIG. 1B) [%] | reduction of adhesion of neutrophils to cytokine-induced endothelial cell line (high concentration: lutein 4-5 μM) [%] | inhibition of the adhesion (~0.6 μM lutein, FIG. 1A) [%]
CC(C)=CCC/C(C)=C/C=C/C(C)=C/C=C/C(C)=C/C=C/C=C(C)/C=C/C=C(C)/C=C/C=C(\C)CCC=C(C)C [lycopene] | 60±15 | 40±22 |  | 
CC1=C[C@H](O)CC(C)(C)[C@H]1/C=C/C(C)=C/C=C/C(C)=C/C=C/C=C(C)/C=C/C=C(C)/C=C/C1=C(C)C[C@@H](O)CC1(C)C [lutein] |  |  | 60±15 | 56±15
